We go through one molecule from US8106044B2, “8-{4-[3-(5-fluoro-1H-indol-3-yl)-propyl]-piperazin-1-yl}-2-methyl-4H-benzo[1,4]oxazin-3-one mesylate with high affinity for the dopamine D2 receptor and the serotonin reuptake site” (Solvay Pharmaceuticals B.V., priority 2001, dated 2012).

One data set is described as follows: bio-availability. Particulars: in vivo.
A short description of the next data set: solubility in water. It counts as physicochemical. Particulars: in comparison with the free base.

Counter-ions that a name gives are not always drawn.

Regarding `CC1Oc2c(cccc2N2CCN(CCCc3c[nH]c4ccc(F)cc34)CC2)NC1=O` (centres unmarked) [mesylate, 8-{4-[3-(5-fluoro-1H-indol-3-yl)-propyl]-piperazin-1-yl}-2-methyl-4H-benzo[1,4]oxazin-3-one mesylate], in “bio-availability”, the bio-availability entry was “good”. In the data set “solubility in water”, the solubility in water entry is listed as “much better soluable in water than the free base”.
